Results reported in ChEMBL document CHEMBL1201862, “PubChem BioAssay data set” (2004).
Counter-ions that a name gives are not always drawn.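 Step 1: Grow cells in 96-well plates. Step 2: Expose to compound for 48 hours at 5 concentrations. Step 3: Interpolate endpoints linearly; if unreached, use highest concentration. GI50 marks 50% less growth.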 Active and inactive are the calls of the source. No stated cut-off is given here; in the data, active = GI50 up to about 1.1 µM and inactive = higher.

How the values were obtained:
Test in all cases: growth of human tumour cells (NCI), 48 h
786-0 = test system: 786-0
A498 = test system: A498
A549 = test system: A549
ACHN = test system: ACHN
CAKI-1 = test system: CAKI-1
CCRF-CEM = test system: CCRF-CEM
COLO 205 = test system: COLO 205
DU-145 = test system: DU-145
EKVX = test system: EKVX
HCC 2998 = test system: HCC 2998
HCT-116 = test system: HCT-116
HCT-15 = test system: HCT-15
HL-60 = test system: HL-60
HOP-62 = test system: HOP-62
HOP-92 = test system: HOP-92
HT-29 = test system: HT-29
IGROV-1 = test system: IGROV-1
K562 = test system: K562
KM12 = test system: KM12
LOX IMVI = test system: LOX IMVI
M14 = test system: M14
MCF7 = test system: MCF7
MDA-MB-231 = test system: MDA-MB-231
MDA-MB-435 = test system: MDA-MB-435
MDA-N = test system: MDA-N
MOLT-4 = test system: MOLT-4
Malme-3M = test system: Malme-3M
NCI-H226 = test system: NCI-H226
NCI-H23 = test system: NCI-H23
NCI-H460 = test system: NCI-H460
NCI-H522 = test system: NCI-H522
NCI/ADR-RES = test system: NCI/ADR-RES
OVCAR-3 = test system: OVCAR-3
OVCAR-4 = test system: OVCAR-4
OVCAR-5 = test system: OVCAR-5
OVCAR-8 = test system: OVCAR-8
PC-3 = test system: PC-3
RXF 393 = test system: RXF 393
SF-268 = test system: SF-268
SF-295 = test system: SF-295
SF-539 = test system: SF-539
SK-MEL-28 = test system: SK-MEL-28
SK-MEL-2 = test system: SK-MEL-2
SK-MEL-5 = test system: SK-MEL-5
SK-OV-3 = test system: SK-OV-3
SN12C = test system: SN12C
SNB-19 = test system: SNB-19
SNB-75 = test system: SNB-75
SR = test system: SR
SW-620 = test system: SW-620
T47D = test system: T47D
U-251 = test system: U-251
UACC-257 = test system: UACC-257
UACC-62 = test system: UACC-62
UO-31 = test system: UO-31

SMILES: c1ccc([C@H]2CN3CCSC3=N2)cc1 [LEVAMISOLE HYDROCHLORIDE]
- GI50 (786-0): > 100 µM (inactive)
- GI50 (A498): > 100 µM (inactive)
- GI50 (A549): > 100 µM (inactive)
- GI50 (ACHN): > 100 µM (inactive)
- GI50 (CAKI-1): > 100 µM (inactive)
- GI50 (CCRF-CEM): > 100 µM (inactive)
- GI50 (COLO 205): > 100 µM (inactive)
- GI50 (DU-145): > 100 µM (inactive)
- GI50 (EKVX): > 100 µM (inactive)
- GI50 (HCC 2998): > 100 µM (inactive)
- GI50 (HCT-116): > 100 µM (inactive)
- GI50 (HCT-15): > 100 µM
- GI50 (HL-60): > 100 µM (inactive)
- GI50 (HOP-62): > 100 µM (inactive)
- GI50 (HOP-92): > 100 µM (inactive)
- GI50 (HT-29): > 100 µM (inactive)
- GI50 (IGROV-1): > 100 µM (inactive)
- GI50 (K562): > 100 µM (inactive)
- GI50 (KM12): > 100 µM (inactive)
- GI50 (LOX IMVI): > 100 µM (inactive)
- GI50 (M14): > 100 µM (inactive)
- GI50 (MCF7): > 100 µM (inactive)
- GI50 (MDA-MB-231): > 100 µM (inactive)
- GI50 (MDA-MB-435): > 100 µM (inactive)
- GI50 (MDA-N): > 100 µM (inactive)
- GI50 (MOLT-4): > 100 µM (inactive)
- GI50 (Malme-3M): > 100 µM (inactive)
- GI50 (NCI-H226): > 100 µM (inactive)
- GI50 (NCI-H23): > 100 µM (inactive)
- GI50 (NCI-H460): > 100 µM (inactive)
- GI50 (NCI-H522): > 100 µM (inactive)
- GI50 (NCI/ADR-RES): > 100 µM (inactive)
- GI50 (OVCAR-3): > 100 µM (inactive)
- GI50 (OVCAR-4): > 100 µM (inactive)
- GI50 (OVCAR-5): > 100 µM (inactive)
- GI50 (OVCAR-8): > 100 µM (inactive)
- GI50 (PC-3): > 100 µM (inactive)
- GI50 (RXF 393): > 100 µM (inactive)
- GI50 (SF-268): > 100 µM (inactive)
- GI50 (SF-295): > 100 µM (inactive)
- GI50 (SF-539): > 100 µM (inactive)
- GI50 (SK-MEL-28): > 100 µM (inactive)
- GI50 (SK-MEL-2): > 100 µM (inactive)
- GI50 (SK-MEL-5): > 100 µM (inactive)
- GI50 (SK-OV-3): > 100 µM (inactive)
- GI50 (SN12C): > 100 µM (inactive)
- GI50 (SNB-19): > 100 µM (inactive)
- GI50 (SNB-75): > 100 µM (inactive)
- GI50 (SR): > 100 µM (inactive)
- GI50 (SW-620): > 100 µM (inactive)
- GI50 (T47D): > 100 µM (inactive)
- GI50 (U-251): > 100 µM (inactive)
- GI50 (UACC-257): > 100 µM (inactive)
- GI50 (UACC-62): > 100 µM (inactive)
- GI50 (UO-31): > 100 µM (inactive)
